Experimental data as given in patent US20240116985A1, “STAPLED PEPTIDES AND METHODS THEREOF” (priority 2020, published 2024).
Like-named read-outs stand apart in the source and are kept apart here.

Target: T1, full-length beta-Catenin (Uniprot ID P35222) (Homo sapiens, UniProt P35222)
T1 construct: 10 nM full-length beta-Catenin (Uniprot ID P35222)
T1 sequence (P35222 1-781): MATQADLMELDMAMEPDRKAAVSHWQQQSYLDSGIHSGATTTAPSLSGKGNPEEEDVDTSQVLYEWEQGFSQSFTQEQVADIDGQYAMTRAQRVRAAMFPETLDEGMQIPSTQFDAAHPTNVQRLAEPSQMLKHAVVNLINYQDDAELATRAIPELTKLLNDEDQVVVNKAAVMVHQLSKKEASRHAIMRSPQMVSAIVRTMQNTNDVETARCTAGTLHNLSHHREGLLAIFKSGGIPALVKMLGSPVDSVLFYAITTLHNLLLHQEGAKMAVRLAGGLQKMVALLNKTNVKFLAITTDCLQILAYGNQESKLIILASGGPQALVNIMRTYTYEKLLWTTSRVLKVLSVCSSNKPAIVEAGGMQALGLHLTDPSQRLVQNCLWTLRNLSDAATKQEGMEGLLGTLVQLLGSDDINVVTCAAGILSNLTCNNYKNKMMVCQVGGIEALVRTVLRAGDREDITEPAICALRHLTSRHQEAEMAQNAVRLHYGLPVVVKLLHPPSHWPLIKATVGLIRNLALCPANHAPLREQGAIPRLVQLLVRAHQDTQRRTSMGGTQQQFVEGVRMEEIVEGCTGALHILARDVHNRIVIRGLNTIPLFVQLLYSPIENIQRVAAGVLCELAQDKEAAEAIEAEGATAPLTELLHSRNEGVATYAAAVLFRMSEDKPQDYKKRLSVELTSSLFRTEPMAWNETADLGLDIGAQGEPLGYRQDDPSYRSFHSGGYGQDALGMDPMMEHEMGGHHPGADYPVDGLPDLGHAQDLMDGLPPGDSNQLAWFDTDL
Test: Fluorescence polarization IC50 (beta-catenin / 5FAM-TCF4 10-53 competition)
Assay type: binding
Settings: fluorescence polarization

Row | IC50 (read-out: beta-Catenin FP IC50) [nM] | SMILES | IC50 (beta-Catenin FP IC50 (nM)) [nM]
1 | 72 | CC(=O)N1CCC[C@]12CC=CCCCC1(CCCC=CCCCOC(=O)N3CC[C@@](C(=O)N[C@@H](Cc4ccccc4C(F)(F)F)C(=O)N[C@@H](Cc4csc5ccccc45)C(=O)N[C@@H](CCC(N)=O)C(=O)N[C@@H](CC(C)C)C(=O)NC4(C(N)=O)CC4)(C3)NC(=O)[C@H](CC(C)C)NC(=O)[C@H](Cc3ccccc3)NC(=O)[C@H](C)NC(=O)[C@H](C)NC(=O)[C@H](Cc3cccc(C(=O)O)c3)NC(=O)[C@H](CC(=O)O)NC1=O)NC(=O)[C@H](CC(C)(C)C)NC(=O)[C@H](CC(=O)O)NC2=O (stereo partly drawn) [I-2389, Ac-PL3-Asp-Npg-B5-Asp-3COOHF-Ala-Ala-Phe-Leu-PyrS2-2F3MeF-BztA-Gln-Leu-Cpg-NH2] | 
2 | 267 | CC(=O)N1CCC[C@]12CC=CCCCC1(CCCC=CCCCOC(=O)N3CC[C@@](C(=O)N[C@@H](Cc4ccsc4)C(=O)N[C@@H](Cc4csc5ccccc45)C(=O)N[C@@H](Cc4ccccc4)C(N)=O)(C3)NC(=O)[C@H](CC(N)=O)NC(=O)[C@H](Cc3ccccc3)NC(=O)[C@H](C)NC(=O)C(C)(C)NC(=O)[C@H]([C@@H](C)O)NC(=O)[C@H](CC(N)=O)NC1=O)NC(=O)[C@H](CC(C)(C)C)NC(=O)[C@H](CC(=O)O)NC2=O (stereo partly drawn) [I-2412, Ac-PL3-Asp-Npg-B5-Asn-Thr-Aib-Ala-Phe-Asn-PyrS2-3Thi-BztA-Phe-NH2] | 
3 | 2120 | CC(=O)N1CCC[C@]12CC=CCCCC1(CCCC=CCCCOC(=O)N3CC[C@@](C(=O)N[C@@H](Cc4ccccc4)C(=O)N[C@@H](Cc4csc5ccccc45)C(=O)N[C@@H](CCCCN)C(N)=O)(C3)NC(=O)[C@H](CC(C)C)NC(=O)[C@H](Cc3ccccc3)NC(=O)[C@H](C)NC(=O)[C@H](CC(N)=O)NC(=O)[C@H](CCC(N)=O)NC(=O)[C@H](CC(=O)O)NC1=O)NC(=O)[C@H](CC1CCCCC1)NC(=O)[C@H](CC(N)=O)NC2=O (stereo partly drawn) [I-2420, Ac-PL3-Asn-Cha-B5-Asp-Gln-Asn-Ala-Phe-Leu-PyrS2-Phe-BztA-Lys-NH2] | 
4 | 3360 | CC(=O)N1CCC[C@]12CC=CCCCC1(CCCC=CCCCOC(=O)N3CC[C@@](C(=O)N[C@@H](Cc4ccccc4)C(=O)N[C@@H](Cc4csc5ccccc45)C(=O)N[C@@H](CCCCN)C(N)=O)(C3)NC(=O)[C@H](CC(C)C)NC(=O)[C@H](Cc3ccccc3)NC(=O)[C@H](C)NC(=O)[C@H](CO)NC(=O)[C@H](CCC(N)=O)NC(=O)[C@H](CC(=O)O)NC1=O)NC(=O)[C@H](CC1CCCCC1)NC(=O)[C@H](CC(N)=O)NC2=O (stereo partly drawn) [I-2422, Ac-PL3-Asn-Cha-B5-Asp-Gln-Ser-Ala-Phe-Leu-PyrS2-Phe-BztA-Lys-NH2] | 
5 | 60 | CCCc1cn(CCCC[C@H](NC(=O)[C@H](CO)NC(=O)[C@H](Cc2csc3ccccc23)NC(=O)[C@H](Cc2ccccc2C(F)(F)F)NC(=O)[C@]23CCN(C2)C(=O)OCCCC=CCCCC2(CCCC=CC[C@]4(CCCN4C(C)=O)C(=O)N[C@@H](CC(=O)O)C(=O)N[C@@H](CC(C)(C)C)C(=O)N2)C(=O)N[C@@H](CC(=O)O)C(=O)N[C@@H](Cc2cccc(C(=O)O)c2)C(=O)N[C@@H](C)C(=O)N[C@@H](C)C(=O)N[C@@H](Cc2ccccc2)C(=O)N[C@@H](CC(C)C)C(=O)N3)C(N)=O)nn1 (stereo partly drawn) [I-2432, Ac-PL3-Asp-Npg-B5-Asp-3COOHF-Ala-Ala-Phe-Leu-PyrS2-2F3MeF-BztA-Ser-[3C]TriAzLys-NH2] | 
6 | 1760 | CC(=O)N1CCC[C@]12CC=CCCCC1(CCCC=CCCCOC(=O)N3CC[C@@](C(=O)N[C@@H](Cc4ccccc4)C(=O)N[C@@H](Cc4csc5ccccc45)C(=O)N[C@@H](CCC(N)=O)C(N)=O)(C3)NC(=O)[C@H]([C@@H](C)O)NC(=O)[C@H](Cc3ccccc3)NC(=O)[C@H](C)NC(=O)[C@H](C)NC(=O)[C@H](Cc3c[nH]cn3)NC(=O)[C@H](CC(=O)O)NC1=O)NC(=O)[C@H](CC(C)(C)C)NC(=O)[C@H](CCO)NC2=O (stereo partly drawn) [I-2438, Ac-PL3-Hse-Npg-B5-Asp-His-Ala-Ala-Phe-Thr-PyrS2-Phe-BztA-Gln-NH2] | 

Second part, the molecule before the results:

Row | SMILES | IC50 (read-out: beta-Catenin FP IC50) [nM] | IC50 (beta-Catenin FP IC50 (nM)) [nM]
7 | CC(C)C[C@@H]1NC(=O)[C@H](Cc2ccccc2)NC(=O)[C@H](C)NC(=O)[C@H](C)NC(=O)[C@H](CN(CC(=O)O)CC(F)(F)F)NC(=O)[C@H](CC(=O)O)NC(=O)C2(CCCCCCCCOC(=O)N3CC[C@@](C(=O)N[C@@H](Cc4ccsc4)C(=O)N[C@@H](Cc4csc5ccccc45)C(=O)N[C@@H](CCC(N)=O)C(N)=O)(C3)NC1=O)CCCCCCOc1cccc(c1)C(=O)N[C@@H](CC(=O)O)C(=O)N[C@@H](CC(C)(C)C)C(=O)N2 (stereo partly drawn) [I-2376, BzAm3OAllyl-Asp-Npg-B5-Asp-TfeGA-Ala-Ala-Phe-Leu-PyrS2-3Thi-BztA-Gln-NH2] | 352 | 
8 | CC(C)C[C@@H]1NC(=O)[C@H](Cc2ccccc2)NC(=O)[C@H](C)NC(=O)[C@H](C)NC(=O)[C@H](CN(CC(=O)O)CC(F)(F)F)NC(=O)[C@H](CC(=O)O)NC(=O)C2(CCCCCCCCOC(=O)N3CC[C@@](C(=O)N[C@@H](Cc4ccsc4)C(=O)N[C@@H](Cc4csc5ccccc45)C(=O)N[C@@H](CCC(N)=O)C(N)=O)(C3)NC1=O)CCCCCCOc1cccc(c1)C(=O)N1CCC[C@H]1C(=O)N[C@@H](CC(=O)O)C(=O)N[C@@H](CC(C)(C)C)C(=O)N2 (stereo partly drawn) [I-2377, ProBzAm3OAllyl-Asp-Npg-B5-Asp-TfeGA-Ala-Ala-Phe-Leu-PyrS2-3Thi-BztA-Gln-NH2] | 978 | 
9 | CC(C)C[C@@H]1NC(=O)[C@H](Cc2ccccc2)NC(=O)[C@H](C)NC(=O)[C@H](C)NC(=O)[C@H](CN(CC(=O)O)CC(F)(F)F)NC(=O)[C@H](CC(=O)O)NC(=O)C2(CCCCCCCCOC(=O)N3CC[C@@](C(=O)N[C@@H](Cc4ccsc4)C(=O)N[C@@H](Cc4csc5ccccc45)C(=O)N[C@@H](CCC(N)=O)C(N)=O)(C3)NC1=O)CCCCCCOc1cccc(c1)CC(=O)N[C@@H](CC(=O)O)C(=O)N[C@@H](CC(C)(C)C)C(=O)N2 (stereo partly drawn) [I-2404, PAc3OAllyl-Asp-Npg-B5-Asp-TfeGA-Ala-Ala-Phe-Leu-PyrS2-3Thi-BztA-Gln-NH2] | 781 | 
10 | CC(C)C[C@@H]1NC(=O)[C@H](Cc2ccccc2)NC(=O)[C@H](C)NC(=O)[C@H](C)NC(=O)[C@H](CN(CC(=O)O)CC(F)(F)F)NC(=O)[C@H](CC(=O)O)NC(=O)C2(CCCCCCCCOC(=O)N3CC[C@@](C(=O)N[C@@H](Cc4ccsc4)C(=O)N[C@@H](Cc4csc5ccccc45)C(=O)N[C@@H](CCC(N)=O)C(N)=O)(C3)NC1=O)CCCCCCOc1cccc(c1)CC(=O)N1CCC[C@H]1C(=O)N[C@@H](CC(=O)O)C(=O)N[C@@H](CC(C)(C)C)C(=O)N2 (stereo partly drawn) [I-2405, ProPAc3OAllyl-Asp-Npg-B5-Asp-TfeGA-Ala-Ala-Phe-Leu-PyrS2-3Thi-BztA-Gln-NH2] | 568 | 
11 | CC(=O)N1CC2CC1C(=O)N[C@@H](CC(=O)O)C(=O)N[C@@H](CC(C)(C)C)C(=O)NC1(CCCCCCCCOC(=O)N3CC[C@@](C(=O)N[C@@H](Cc4ccsc4)C(=O)N[C@@H](Cc4csc5ccccc45)C(=O)N[C@@H](CCC(N)=O)C(N)=O)(C3)NC(=O)[C@H](CC(C)C)NC(=O)[C@H](Cc3ccccc3)NC(=O)[C@H](C)NC(=O)[C@H](C)NC(=O)[C@H](CN(CC(=O)O)CC(F)(F)F)NC(=O)[C@H](CC(=O)O)NC1=O)CCCCCCOc1cccc(c1)CC(=O)O2 (stereo partly drawn) [I-2406, Ac-HypPAc3OAllyl-Asp-Npg-B5-Asp-TfeGA-Ala-Ala-Phe-Leu-PyrS2-3Thi-BztA-Gln-NH2] |  | 242
12 | CC(=O)N1CCC[C@]12CC=CCCCC1(CCCC=CCCCOC(=O)N3CC[C@@](C(=O)N[C@@H](Cc4ccsc4)C(=O)N[C@@H](Cc4csc5ccccc45)C(=O)N[C@@H](C)C(N)=O)(C3)NC(=O)[C@H](CC(N)=O)NC(=O)[C@H](Cc3ccccc3)NC(=O)[C@H](C)NC(=O)C(C)(C)NC(=O)[C@H]([C@@H](C)O)NC(=O)[C@H](CC(N)=O)NC1=O)NC(=O)[C@H](CC(C)(C)C)NC(=O)[C@H](CC(=O)O)NC2=O (stereo partly drawn) [I-2411, Ac-PL3-Asp-Npg-B5-Asn-Thr-Aib-Ala-Phe-Asn-PyrS2-3Thi-BztA-Ala-NH2] | 140 | 
13 | CC(=O)N1CCC[C@]12CC=CCCCC1(CCCC=CCCCOC(=O)N3CC[C@@](C(=O)N[C@@H](Cc4ccccc4)C(=O)N[C@@H](Cc4csc5ccccc45)C(=O)N[C@@H](CCCCN)C(N)=O)(C3)NC(=O)[C@H](CC(C)C)NC(=O)[C@H](Cc3ccccc3)NC(=O)[C@H](C)NC(=O)[C@H](CCCN3CCOCC3)NC(=O)[C@H](CCC(N)=O)NC(=O)[C@H](CC(=O)O)NC1=O)NC(=O)[C@H](CC1CCCCC1)NC(=O)[C@H](CC(N)=O)NC2=O (stereo partly drawn) [I-2427, Ac-PL3-Asn-Cha-B5-Asp-Gln-MorphNva-Ala-Phe-Leu-PyrS2-Phe-BztA-Lys-NH2] | 757 | 
14 | CC(=O)N1CCC[C@]12CC=CCCCC1(CCCC=CCCCOC(=O)N3CC[C@@](C(=O)N[C@@H](Cc4ccccc4)C(=O)N[C@@H](Cc4csc5ccccc45)C(=O)N[C@@H](CCCN4CCOCC4)C(N)=O)(C3)NC(=O)[C@H](CC(C)C)NC(=O)[C@H](Cc3ccccc3)NC(=O)[C@H](C)NC(=O)[C@H](CCCCNC(C)C)NC(=O)[C@H](CCC(N)=O)NC(=O)[C@H](CC(=O)O)NC1=O)NC(=O)[C@H](CC1CCCCC1)NC(=O)[C@H](CC(N)=O)NC2=O (stereo partly drawn) [I-2428, Ac-PL3-Asn-Cha-B5-Asp-Gln-iPrLys-Ala-Phe-Leu-PyrS2-Phe-BztA-MorphNva-NH2] | 401 | 
